Data from patent US10669261B2, “Heteroarylhydroxypyrimidinones as agonists of the APJ receptor” (BRISTOL-MYERS SQUIBB COMPANY, priority 2015, dated 2020).

target: T1, human APJ receptor (Homo sapiens, UniProt P35414); assay: Intracellular cAMP accumulation assay (APJ hcAMP, HTRF); assay type: cell-based; conditions: HEK293 cells stably expressing human APJ receptor; inhibition of forskolin-mediated cAMP production; stated at end of example; read-out: Human APJ cAMP Potency Range
T1 construct: expressed in transfected cells
T1 sequence (P35414 1-380): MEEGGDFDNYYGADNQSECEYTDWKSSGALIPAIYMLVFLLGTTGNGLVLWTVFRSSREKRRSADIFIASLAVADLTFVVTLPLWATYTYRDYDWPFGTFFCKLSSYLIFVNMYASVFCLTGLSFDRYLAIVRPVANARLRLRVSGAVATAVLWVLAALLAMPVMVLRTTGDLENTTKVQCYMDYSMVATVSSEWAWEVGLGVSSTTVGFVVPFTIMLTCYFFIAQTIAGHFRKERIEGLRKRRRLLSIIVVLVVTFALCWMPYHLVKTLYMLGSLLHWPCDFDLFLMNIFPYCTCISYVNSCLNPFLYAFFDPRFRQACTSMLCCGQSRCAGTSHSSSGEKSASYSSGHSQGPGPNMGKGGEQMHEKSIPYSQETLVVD
Method in brief: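 HEK293 cells stably expressing the receptor (5,000/well) treated with compound plus […] and 2 μM forskolin for 30 min at room temperature; cAMP by HTRF against a cAMP standard curve. EC50 from variable-slope sigmoidal fit; Ymax as % of (Pyr1)apelin-13 inhibition.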

| EC50 [nM] | SMILES |
| --- | --- |
| 0.01 to 10 | CCCCc1nc(=O)c(-c2nnc(Cc3noc4ccccc34)o2)c(O)n1-c1c(OCC)cccc1OCC [Example 23, 5-(5-(Benzo[d]isoxazol-3-ylmethyl)-1,3,4-oxadiazol-2-yl)-2-butyl-1-(2,6-diethoxyphenyl)-6-hydroxypyrimidin-4(1H)-one] |

same assay, conditions: Table 1; HEK293 cells stably expressing human APJ receptor; read-out: hAPJ cAMP EC50 Potency range

| EC50 [nM] | SMILES |
| --- | --- |
| 10 to 100 | CCOCc1nc(=O)c(-c2nnc(Cc3csc(-c4ccccc4)n3)o2)c(O)n1-c1c(OC)cccc1OC [Example 39, 1-(2,6-dimethoxyphenyl)-2-(ethoxymethyl)-6-hydroxy-5-{5-[(2-phenyl-1,3-thiazol-4-yl)methyl]-1,3,4-oxadiazol-2-yl}-1,4-dihydropyrimidin-4-one] |
| 0.01 to 10 | COc1cccc(OC)c1-n1c(C2CCCC2)nc(=O)c(-c2nnc(Cc3ccc(C)nc3)o2)c1O [Example 68, 2-cyclopentyl-1-(2,6-dimethoxyphenyl)-6-hydroxy-5-{5-[(6-methylpyridin-3-yl)methyl]-1,3,4-oxadiazol-2-yl}-1,4-dihydropyrimidin-4-one] |
| 0.01 to 10 | COc1cccc(OC)c1-n1c(C2CCCC2)nc(=O)c(-c2nnc(Cc3ccc(Cl)nc3)o2)c1O [Example 63, 5-{5-[(6-chloropyridin-3-yl)methyl]-1,3,4-oxadiazol-2-yl}-2-cyclopentyl-1-(2,6-dimethoxyphenyl)-6-hydroxy-1,4-dihydropyrimidin-4-one] |
| 0.01 to 10 | CCCCc1nc(=O)c(-c2nnc(Cc3ccc(Cl)cc3)o2)c(O)n1-c1c(OC)cccc1OC [Example 2, 2-butyl-5-{5-[(4-chlorophenyl)methyl]-1,3,4-oxadiazol-2-yl}-1-(2,6-dimethoxyphenyl)-6-hydroxy-1,4-dihydropyrimidin-4-one] |
| 0.01 to 10 | COc1cccc(OC)c1-n1c(C2CCCC2)nc(=O)c(-c2nnc(Cn3ccccc3=O)o2)c1O [Example 62, 2-cyclopentyl-1-(2,6-dimethoxyphenyl)-6-hydroxy-5-{5-[(2-oxo-1,2-dihydropyridin-1-yl)methyl]-1,3,4-oxadiazol-2-yl}-1,4-dihydropyrimidin-4-one] |
| 0.01 to 10 | CCOCc1nc(=O)c(-c2nnc(Cc3ccc(Cl)cc3)o2)c(O)n1-c1c(CC)cccc1CC [Example 37, 5-{5-[(4-chlorophenyl)methyl]-1,3,4-oxadiazol-2-yl}-1-(2,6-diethylphenyl)-2-(ethoxymethyl)-6-hydroxy-1,4-dihydropyrimidin-4-one] |
| 0.01 to 10 | CCCCc1nc(=O)c(-c2nnc(Cc3nc(-c4ccccn4)no3)o2)c(O)n1-c1c(OC)cccc1OC [Example 9, 2-butyl-1-(2,6-dimethoxyphenyl)-6-hydroxy-5-(5-{[3-(pyridin-2-yl)-1,2,4-oxadiazol-5-yl]methyl}-1,3,4-oxadiazol-2-yl)-1,4-dihydropyrimidin-4-one] |
| 0.01 to 10 | [2H]C([2H])([2H])Oc1cccc(OC([2H])([2H])[2H])c1-n1c(CCCC)nc(=O)c(-c2nnc(Cc3ccc(Cl)cc3)o2)c1O [Example 49, 1-[2,6-bis(^2H3)methoxyphenyl]-2-butyl-5-{5-[(4-chlorophenyl)methyl]-1,3,4-oxadiazol-2-yl}-6-hydroxy-1,4-dihydropyrimidin-4-one] |
| 0.01 to 10 | COc1cccc(OC)c1-n1c(C2CCC2)nc(=O)c(-c2nnc(CN3CCCC3=O)o2)c1O [Example 72, 2-cyclobutyl-1-(2,6-dimethoxyphenyl)-6-hydroxy-5-{5-[(2-oxopyrrolidin-1-yl)methyl]-1,3,4-oxadiazol-2-yl}-1,4-dihydropyrimidin-4-one] |
| 0.01 to 10 | CCCCc1nc(=O)c(-c2nnc(Cc3noc4ccccc34)o2)c(O)n1-c1c(OC2CC2)cccc1OC1CC1 [Example 30, 5-[5-(1,2-benzoxazol-3-ylmethyl)-1,3,4-oxadiazol-2-yl]-2-butyl-1-(2,6-dicyclopropoxyphenyl)-6-hydroxy-1,4-dihydropyrimidin-4-one] |
| 0.01 to 10 | COc1cccc(OC)c1-n1c(COC(C)C)nc(=O)c(-c2nnc(Cc3ccc(Cl)cc3F)o2)c1O [Example 60, 5-{5-[(4-chloro-2-fluorophenyl)methyl]-1,3,4-oxadiazol-2-yl}-1-(2,6-dimethoxyphenyl)-6-hydroxy-2-[(propan-2-yloxy)methyl]-1,4-dihydropyrimidin-4-one] |
| 0.01 to 10 | CC(C)OCc1nc(=O)c(-c2nnc(Cc3noc4ccccc34)o2)c(O)n1-c1c(C2CC2)cccc1C1CC1 [Example 41, 5-[5-(1,2-benzoxazol-3-ylmethyl)-1,3,4-oxadiazol-2-yl]-1-(2,6-dicyclopropylphenyl)-6-hydroxy-2-[(propan-2-yloxy)methyl]-1,4-dihydropyrimidin-4-one] |
| 0.01 to 10 | CCOCc1nc(=O)c(-c2nnc(Cc3noc4ccccc34)o2)c(O)n1-c1c(CC)cccc1CC [Example 35, 5-[5-(1,2-benzoxazol-3-ylmethyl)-1,3,4-oxadiazol-2-yl]-1-(2,6-diethylphenyl)-2-(ethoxymethyl)-6-hydroxy-1,4-dihydropyrimidin-4-one] |

same assay, conditions: Table 2; HEK293 cells stably expressing human APJ receptor; read-out: hAPJ cAMP EC50 Potency range

| EC50 [nM] | SMILES |
| --- | --- |
| 0.01 to 10 | CCCCc1nc(O)c(-c2nnc(Cc3ccc(Cl)cn3)o2)c(=O)n1C(c1ccccc1)C(C)C (stereo not drawn) [Example 113, 2-butyl-5-{5-[(5-chloropyridin-2-yl)methyl]-1,3,4-oxadiazol-2-yl}-6-hydroxy-3-(2-methyl-1-phenylpropyl)-3,4-dihydropyrimidin-4-one] |
| 100 to 300 | CCCCc1nc(O)c(-c2nnc(Cc3ccc(Cl)cc3)o2)c(=O)n1[C@@H](C)C1CC1 [Example 77, 2-butyl-5-{5-[(4-chlorophenyl)methyl]-1,3,4-oxadiazol-2-yl}-3-[(1S)-1-cyclopropylethyl]-6-hydroxy-3,4-dihydropyrimidin-4-one] |
| 100 to 300 | CCCCc1nc(O)c(-c2nnc(Cc3csc(C)n3)o2)c(=O)n1[C@H](COC)c1ccccc1 [Example 93, 2-butyl-6-hydroxy-3-[(1S)-2-methoxy-1-phenylethyl]-5-{5-[(2-methyl-1,3-thiazol-4-yl)methyl]-1,3,4-oxadiazol-2-yl}-3,4-dihydropyrimidin-4-one] |
| 0.01 to 10 | CCCCc1nc(O)c(-c2nnc(Cc3ccc(Cl)cn3)o2)c(=O)n1[C@@H](C)c1ccccc1 [Example 119, 2-butyl-5-{5-[(5-chloropyridin-2-yl)methyl]-1,3,4-oxadiazol-2-yl}-6-hydroxy-3-[(1S)-1-phenylethyl]-3,4-dihydropyrimidin-4-one] |
| 10 to 100 | CCCCc1nc(O)c(-c2nnc(Cc3ccc(Cl)cc3)o2)c(=O)n1[C@@H](CC)c1ccccc1 [Example 84, 2-butyl-5-{5-[(4-chlorophenyl)methyl]-1,3,4-oxadiazol-2-yl}-6-hydroxy-3-[(1S)-1-phenylpropyl]-3,4-dihydropyrimidin-4-one] |
| 100 to 300 | CCCCc1nc(O)c(-c2nnc(Cc3noc4ccccc34)o2)c(=O)n1C(C)c1cccnc1 (stereo not drawn) [Example 121, 5-{5-[(1,2-benzoxazol-3-yl)methyl]-1,3,4-oxadiazol-2-yl}-2-butyl-6-hydroxy-3-[1-(pyridin-3-yl)ethyl]-3,4-dihydropyrimidin-4-one] |
| 100 to 300 | CCCCc1nc(O)c(-c2nnc(Cc3csc(C)n3)o2)c(=O)n1C(C)c1cccnc1 (racemic) [Example 124, 2-butyl-6-hydroxy-5-{5-[(2-methyl-1,3-thiazol-4-yl)methyl]-1,3,4-oxadiazol-2-yl}-3-[1-(pyridin-3-yl)ethyl]-3,4-dihydropyrimidin-4-one] |
| 100 to 300 | CCCCc1nc(O)c(-c2nnc(Cc3noc4ccccc34)o2)c(=O)n1[C@@H]1CCc2ccccc21 [Example 117, 5-{5-[(1,2-benzoxazol-3-yl)methyl]-1,3,4-oxadiazol-2-yl}-2-butyl-3-[(1R)-2,3-dihydro-1H-inden-1-yl]-6-hydroxy-3,4-dihydropyrimidin-4-one] |
| 10 to 100 | CCCCc1nc(O)c(-c2nnc(Cc3ccc(Cl)cc3)o2)c(=O)n1[C@H](C)c1ccccc1OC [Example 81, 2-butyl-5-{5-[(4-chlorophenyl)methyl]-1,3,4-oxadiazol-2-yl}-6-hydroxy-3-[(1R)-1-(2-methoxyphenyl)ethyl]-3,4-dihydropyrimidin-4-one] |
| 10 to 100 | CCCCc1nc(O)c(-c2nnc(Cc3noc4ccccc34)o2)c(=O)n1[C@H]1CCc2ccccc21 [Example 96, 5-{5-[(1,2-benzoxazol-3-yl)methyl]-1,3,4-oxadiazol-2-yl}-2-butyl-3-[(1S)-2,3-dihydro-1H-inden-1-yl]-6-hydroxy-3,4-dihydropyrimidin-4-one] |
| 10 to 100 | CCCCc1nc(O)c(-c2nnc(Cc3csc(C)n3)o2)c(=O)n1[C@@H](C)c1ccc(F)cc1 [Example 95, 2-butyl-3-[(1S)-1-(4-fluorophenyl)ethyl]-6-hydroxy-5-{5-[(2-methyl-1,3-thiazol-4-yl)methyl]-1,3,4-oxadiazol-2-yl}-3,4-dihydropyrimidin-4-one] |
| 0.01 to 10 | CCCCc1nc(O)c(-c2nnc(Cc3ccc(Cl)cn3)o2)c(=O)n1[C@@H](COC)c1ccccc1 [Example 101, 2-butyl-5-{5-[(5-chloropyridin-2-yl)methyl]-1,3,4-oxadiazol-2-yl}-6-hydroxy-3-[(1R)-2-methoxy-1-phenylethyl]-3,4-dihydropyrimidin-4-one] |
| 10 to 100 | CCCCc1nc(O)c(-c2nnc(Cc3noc4ccccc34)o2)c(=O)n1C(C)c1ccncc1 (stereo not drawn) [Example 110, 5-{5-[(1,2-benzoxazol-3-yl)methyl]-1,3,4-oxadiazol-2-yl}-2-butyl-6-hydroxy-3-[1-(pyridin-4-yl)ethyl]-3,4-dihydropyrimidin-4-one] |
